Consider eight compounds from ChEMBL document CHEMBL3217657, “Rapid assembly of potent type II dehydroquinase inhibitors viaClick chemistry” (Medchemcomm, 2010).

The term Ki denotes a dissociation constant, usually derived from enzyme kinetics or from competition with a known ligand.

Assay [1] deals with T1, 3-dehydroquinate dehydratase (Streptomyces coelicolor (strain ATCC BAA-471 / A3(2) / M145), UniProt P15474).
T1 sequence (P15474 whole entry): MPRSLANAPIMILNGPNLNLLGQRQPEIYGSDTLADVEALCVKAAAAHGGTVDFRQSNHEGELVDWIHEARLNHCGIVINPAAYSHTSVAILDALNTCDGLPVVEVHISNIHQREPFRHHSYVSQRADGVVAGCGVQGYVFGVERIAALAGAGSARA
As to the kind of experiment: Competitive reversible inhibition of Strepotomyces coelicolor type 2 dehydroquinase expressed in Escherichia coli BL21 (DE3) cells assessed as enone-carboxylate chromophore of 3-dehydroshikimate formation using 3-dehydroquinate as substrate preincubated with enzyme for 3 mins prior to substrate addition by UV spectrophotometric assay.

The target of assay [2] is T2, 3-dehydroquinate dehydratase (Helicobacter pylori (strain ATCC 700392 / 26695) (Campylobacterpylori), UniProt Q48255).
T2 sequence (Q48255 whole entry): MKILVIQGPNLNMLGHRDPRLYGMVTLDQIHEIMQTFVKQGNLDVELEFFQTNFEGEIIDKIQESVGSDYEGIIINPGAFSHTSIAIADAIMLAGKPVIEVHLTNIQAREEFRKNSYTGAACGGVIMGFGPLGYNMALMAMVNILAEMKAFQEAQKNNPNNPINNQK
As to the kind of experiment: Competitive reversible inhibition of Helicobacter pylori type 2 dehydroquinase expressed in Escherichia coli BL21 (DE3) cells assessed as enone-carboxylate chromophore of 3-dehydroshikimate formation using 3-dehydroquinate as substrate preincubated with enzyme for 3 mins prior to substrate addition by UV spectrophotometric assay.

In assay [3] the target is T3, 3-dehydroquinate dehydratase (Mycobacterium tuberculosis, UniProt P9WPX7).
T3 sequence (P9WPX7 whole entry): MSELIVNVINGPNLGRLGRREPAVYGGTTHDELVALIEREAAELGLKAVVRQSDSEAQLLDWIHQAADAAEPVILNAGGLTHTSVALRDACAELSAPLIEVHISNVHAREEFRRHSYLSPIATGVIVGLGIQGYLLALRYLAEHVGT
As to the kind of experiment: Competitive reversible inhibition of Mycobacterium tuberculosis type 2 dehydroquinase expressed in Escherichia coli BL21 (DE3) cells assessed as enone-carboxylate chromophore of 3-dehydroshikimate formation using 3-dehydroquinate as substrate preincubated with enzyme for 3 mins prior to substrate addition by UV spectrophotometric assay.

Take `O=C(O)[C@]1(O)C=C(c2cn(-c3ccccc3)nn2)[C@@H](O)[C@H](O)C1`: the Ki in assay [1] was 5.7 nM; in assay [2] it was 225 nM; in assay [3] it was 39 nM.
As to `O=C(O)[C@]1(O)C=C(c2cn(-c3ccc(F)cc3)nn2)[C@@H](O)[C@H](O)C1`, the results for the inhibition constant Ki in assay [1], in assay [2] and in assay [3] were 29 nM, 561 nM and 154 nM, respectively.
In the case of `O=C(O)[C@]1(O)C=C(c2cn(-c3ccccc3O)nn2)[C@@H](O)[C@H](O)C1`, the Ki in assay [1] is 48 nM; in assay [2], 157 nM; in assay [3] it was 330 nM.
On the same counts, the results for `O=C(O)[C@]1(O)C=C(c2cn(-c3cccc([N+](=O)[O-])c3)nn2)[C@@H](O)[C@H](O)C1` are 78 nM, 538 nM and 230 nM.
With `O=C(O)c1cccc(-n2cc(C3=C[C@@](O)(C(=O)O)C[C@@H](O)[C@@H]3O)nn2)c1`, the Ki in assay [1] is 1720 nM; in assay [2], 5780 nM; in assay [3], 3130 nM.
Consider `O=C(O)[C@]1(O)C=C(c2cn(Cc3cccs3)nn2)[C@@H](O)[C@H](O)C1`, for which the values for the Ki in assay [1], in assay [2] and in assay [3] were 73 nM, 925 nM and 1580 nM, respectively.
Turning to `O=C(O)[C@]1(O)C=C(c2cn(-c3cccnc3)nn2)[C@@H](O)[C@H](O)C1`, the Ki in assay [1] was found to be 5.7 nM; in assay [2], 375 nM; in assay [3], 136 nM.
On to `O=C(O)[C@]1(O)C=C(c2cn(Cc3ccco3)nn2)[C@@H](O)[C@H](O)C1`, for which the inhibition constant (Ki) in assay [1] was 217 nM; in assay [2] it was 2200 nM; in assay [3] it was 2120 nM.
